The results in this text go back to patent US8822471B2, “Compounds, pharmaceutical compositions and uses thereof” (Boehringer Ingelheim International GmbH, priority 2011, dated 2014).

A word on the EC50: it is the concentration that produces a half-maximal response. A high value points to a need for much substance.

Test [1] concerns the target T1, mutant form of the human GPR119 receptor (Homo sapiens, UniProt Q8TDV5, S329A/T327A).
T1 construct: T327 & S329 changed to alanines; expressed in transfected cells
T1 sequence (Q8TDV5 2-335 T327A/S329A): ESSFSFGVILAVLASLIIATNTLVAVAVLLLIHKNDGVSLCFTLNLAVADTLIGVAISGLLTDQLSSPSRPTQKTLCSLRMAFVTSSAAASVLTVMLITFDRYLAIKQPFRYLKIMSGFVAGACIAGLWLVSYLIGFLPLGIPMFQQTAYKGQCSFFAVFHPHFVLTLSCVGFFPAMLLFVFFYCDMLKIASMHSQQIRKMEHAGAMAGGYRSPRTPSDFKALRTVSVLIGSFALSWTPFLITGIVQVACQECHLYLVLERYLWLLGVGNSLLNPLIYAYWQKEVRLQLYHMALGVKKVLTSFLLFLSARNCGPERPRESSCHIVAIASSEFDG
Briefly: LANCE cAMP-384 assay in HEK293 cells stably expressing a mutant form of the human GPR119 receptor. The class given is cell-based. Particulars: HEK293 cells stably expressing mutant human GPR119, LANCE cAMP-384 Kit, 20 min at 37° C. Here is the method: Quantitative detection of cAMP accumulation from cells expressing human GPR119 receptor is achieved using Perkin Elmer's LANCE cAMP-384 Kit (Cat#AD0264) according to the manufacturer's protocol. Briefly, HEK293 cells stably expressing a mutant form of the human GPR119 receptor as assay tool (Methionine 1 replaced with the amino acid sequence […], and T327 & S329 changed to alanines; SEQ ID No. 1) are grown to 50-70% confluency in cell culture media (DMEM, 10% heat inactivated Fetal Bovine Serum, 50 I.U./mL penicillin, 50 μg/mL streptomycin, 10 mM HEPES, 20 μg/mL G418 Sulfate). On the day of the assay, GPR119 stable HEK293 cells are lifted from the tissue culture plate and 1000 cells/well are incubated along with various concentrations of test compounds for 20 min at 37° C. Detection Buffer (50 mM HEPES, 10 mM calcium chloride, 0.35% Triton X-100, 1 mg/mL BSA) containing cAMP-specific antibody is then added to all wells and allowed to equilibrate in the dark for 10 minutes at room temperature. Upon equilibration, Detection Buffer containing europium-labeled cAMP tracer complex is added to all wells and allowed to react for 1 hour at room temperature. After 1 hour, bound europium-labeled cAMP tracer is measured using a Perkin Elmer Envision plate reader. The quantity of cAMP generated in each well is derived from a standard curve. EC50 is determined using nonlinear regression analysis of the cAMP values over a range of agonist concentration (12 points spanning the range from 30 μM to 100 pM).
(In general: Time-resolved FRET reads energy transfer from a long-lived donor to a nearby acceptor.)

Another test deals with T2, human GPR119 (Homo sapiens, UniProt Q8TDV5).
T2 construct: expression vector for human GPR119 cDNA (Acc. No. NP_848566); expressed in transfected cells
T2 sequence (Q8TDV5 1-335): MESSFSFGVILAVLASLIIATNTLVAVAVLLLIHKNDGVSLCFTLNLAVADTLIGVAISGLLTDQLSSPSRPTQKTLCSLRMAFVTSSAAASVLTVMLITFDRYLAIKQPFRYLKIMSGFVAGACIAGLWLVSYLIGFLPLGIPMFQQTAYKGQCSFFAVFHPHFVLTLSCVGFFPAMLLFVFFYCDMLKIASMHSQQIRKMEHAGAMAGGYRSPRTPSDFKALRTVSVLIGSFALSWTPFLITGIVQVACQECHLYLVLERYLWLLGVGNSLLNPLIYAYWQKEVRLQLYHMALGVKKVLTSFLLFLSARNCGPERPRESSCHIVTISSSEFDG
In words: AlphaScreen cAMP assay in MIN6 cells stably transfected with human GPR119. The class given is cell-based. Particulars: Min-6/hGPR119 cells, AlphaScreen cAMP Assay Kit, 45 minutes incubation at room temperature. An outline of the steps:
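MIN6 cells stably expressing human GPR119, seeded 24 h, then stimulated 45 min at room temperature with compound in pH 7.4 Hepes-buffered salt solution with 0.5 mM IBMX, 0.1% BSA, 1% DMSO. Intracellular cAMP measured by AlphaScreen.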
(In general: Bead proximity is the source of the signal in Alpha formats.)

The compound `Cc1nnnn1-c1ccc(C(=O)N(C2CC2)[C@@H]2CCN(c3ccc(C(F)(F)F)cn3)C[C@@H]2F)cc1` (single isomer, unassigned) [Example 120] yielded an EC50 in test [1] of 745 nM.
On the same count and under the same terms, the figure for `O=C(c1ccc(-n2cnnn2)c(F)c1)N(C1CC1)[C@@H]1CCN(c2ccc(C(F)(F)F)cn2)C[C@@H]1F` (single isomer, unassigned) [Example 121] is 134 nM.
On human GPR119, `COC(=O)c1cnc(N2CCC(N(C(=O)c3ccc(-c4cnco4)cc3)C3CC3)CC2)nc1` [Example 84, 2-{4-[Cyclopropyl-(4-oxazol-5-yl-benzoyl)-amino]-piperidin-1-yl}-pyrimidine-5-carboxylic acid methyl ester] had a 50% effective concentration (EC50) of 116 nM.
In turn, `O=C(c1ccc(-c2cnco2)cc1)N(C1CC1)C1CCN(c2cnccn2)CC1` [Example 85, N-Cyclopropyl-4-oxazol-5-yl-N-(1-pyrazin-2-yl-piperidin-4-yl)-benzamide] registered an EC50 on human GPR119 of 449 nM.
As for `N#Cc1cnc(N2CCC(N(C(=O)c3ccc(-c4cnco4)cc3)C3CC3)CC2)cn1` [Example 86, N-[1-(5-Cyano-pyrazin-2-yl)-piperidin-4-yl]-N-cyclopropyl-4-oxazol-5-yl-benzamide], on human GPR119, the EC50 is 139 nM.
Still for that read-out and setting: the figure for `O=C(c1ccc(-c2cnco2)cc1)N(C1CC1)C1CCN(c2nnc(C(F)(F)F)s2)CC1` [Example 87, N-Cyclopropyl-4-oxazol-5-yl-N-[1-(5-trifluoromethyl-[1,3,4]thiadiazol-2-yl)-piperidin-4-yl]-benzamide] is 25 nM; for `O=C(c1ccc(-c2cnco2)cc1)N(C1CC1)C1CCN(c2ncc(C3CC3)cn2)CC1` [Example 88, N-Cyclopropyl-N-[1-(5-cyclopropyl-pyrimidin-2-yl)-piperidin-4-yl]-4-oxazol-5-yl-benzamide] it is 71 nM; for `Cc1cnc(N2CCC(N(C(=O)c3ccc(-c4cnco4)cc3)C3CC3)CC2)nc1` [Example 89, N-Cyclopropyl-N-[1-(5-methyl-pyrimidin-2-yl)-piperidin-4-yl]-4-oxazol-5-yl-benzamide] it is 34 nM.
`Cc1nccn1-c1ccc(C(=O)N(C2CC2)C2CCN(c3ncc(C(F)(F)F)cc3F)CC2)cc1` [Example 90, N-Cyclopropyl-N-(3′-fluoro-5′-trifluoromethyl-3,4,5,6-tetrahydro-2H-[1,2′]bipyridinyl-4-yl)-4-(2-methyl-imidazol-1-yl)-benzamide]: the EC50 in test [1] amounted to 149 nM.
The compound `O=C(c1ccc(-n2cncn2)cc1)N(C1CC1)C1CCN(c2ncc(C(F)(F)F)cc2F)CC1` [Example 91, N-Cyclopropyl-N-(3′-fluoro-5′-trifluoromethyl-3,4,5,6-tetrahydro-2H-[1,2′]bipyridinyl-4-yl)-4-[1,2,4]triazol-1-yl-benzamide] returned an EC50 in test [1] of 48 nM.
Same read-out and setting: to `Cc1ncnn1-c1ccc(C(=O)N(C2CC2)C2CCN(c3ncc(C(F)(F)F)cc3F)CC2)cc1` [Example 92, N-Cyclopropyl-N-(3′-fluoro-5′-trifluoromethyl-3,4,5,6-tetrahydro-2H-[1,2′]bipyridinyl-4-yl)-4-(5-methyl-[1,2,4]triazol-1-yl)-benzamide] belongs 265 nM; to `Cc1nccn1-c1ccc(C(=O)N(C2CC2)C2CCN(c3ncc(C(F)(F)F)cc3F)CC2)cc1F` [Example 93, N-Cyclopropyl-3-fluoro-N-(3′-fluoro-5′-trifluoromethyl-3,4,5,6-tetrahydro-2H-[1,2′]bipyridinyl-4-yl)-4-(2-methyl-imidazol-1-yl)-benzamide], 168 nM; to `O=C(c1ccc(-n2cncn2)c(F)c1)N(C1CC1)C1CCN(c2ncc(C(F)(F)F)cc2F)CC1` [Example 94, N-Cyclopropyl-3-fluoro-N-(3′-fluoro-5′-trifluoromethyl-3,4,5,6-tetrahydro-2H-[1,2′]bipyridinyl-4-yl)-4-[1,2,4]triazol-1-yl-benzamide], 10 nM.
On the same count and under the same terms, the figure for `Cc1ncnn1-c1ccc(C(=O)N(C2CC2)C2CCN(c3ncc(C(F)(F)F)cc3F)CC2)cc1F` [Example 95, N-Cyclopropyl-3-fluoro-N-(3′-fluoro-5′-trifluoromethyl-3,4,5,6-tetrahydro-2H-[1,2′]bipyridinyl-4-yl)-4-(5-methyl-[1,2,4]triazol-1-yl)-benzamide] is 595 nM; for `Cc1nccn1-c1ccc(C(=O)N(C2CC2)C2CCN(c3nc(C(C)C)no3)CC2)cc1` [Example 96, N-Cyclopropyl-N-[1-(3-isopropyl-[1,2,4]oxadiazol-5-yl)-piperidin-4-yl]-4-(2-methyl-imidazol-1-yl)-benzamide] it is 1630 nM.
On the same count and under the same terms, the figure for `CC(C)c1noc(N2CCC(N(C(=O)c3ccc(-n4cncn4)cc3)C3CC3)CC2)n1` [Example 97, N-Cyclopropyl-N-[1-(3-isopropyl-[1,2,4]oxadiazol-5-yl)-piperidin-4-yl]-4-[1,2,4]triazol-1-yl-benzamide] is 170 nM; for `Cc1nccn1-c1ccc(C(=O)N(C2CC2)C2CCN(c3nc(C(C)C)no3)CC2)cc1F` [Example 99, N-Cyclopropyl-3-fluoro-N-[1-(3-isopropyl-[1,2,4]oxadiazol-5-yl)-piperidin-4-yl]-4-(2-methyl-imidazol-1-yl)-benzamide] it is 1740 nM; for `CC(C)c1noc(N2CCC(N(C(=O)c3ccc(-n4cncn4)c(F)c3)C3CC3)CC2)n1` [Example 100, N-Cyclopropyl-3-fluoro-N-[1-(3-isopropyl-[1,2,4]oxadiazol-5-yl)-piperidin-4-yl]-4-[1,2,4]triazol-1-yl-benzamide] it is 45 nM.
Consider `Cc1ncnn1-c1ccc(C(=O)N(C2CC2)C2CCN(c3nc(C(C)C)no3)CC2)cc1F` [Example 101, N-Cyclopropyl-3-fluoro-N-[1-(3-isopropyl-[1,2,4]oxadiazol-5-yl)-piperidin-4-yl]-4-(5-methyl-[1,2,4]triazol-1-yl)-benzamide], for which it took 1130 nM to reach a half-maximal effect in test [1] (EC50).
On the same count and under the same terms, the figure for `CCc1cnc(N2CCC(N(C(=O)c3ccc(-n4ccnc4C)cc3)C3CC3)CC2)nc1` [Example 102, N-Cyclopropyl-N-[1-(5-ethyl-pyrimidin-2-yl)-piperidin-4-yl]-4-(2-methyl-imidazol-1-yl)-benzamide] is 1090 nM; for `CCc1cnc(N2CCC(N(C(=O)c3ccc(-n4ncnc4C)cc3)C3CC3)CC2)nc1` [Example 103, N-Cyclopropyl-N-[1-(5-ethyl-pyrimidin-2-yl)-piperidin-4-yl]-4-(5-methyl-[1,2,4]triazol-1-yl)-benzamide] it is 1590 nM; for `CCc1cnc(N2CCC(N(C(=O)c3ccc(-n4ccnc4C)c(F)c3)C3CC3)CC2)nc1` [Example 104, N-Cyclopropyl-N-[1-(5-ethyl-pyrimidin-2-yl)-piperidin-4-yl]-3-fluoro-4-(2-methyl-imidazol-1-yl)-benzamide] it is 1950 nM.
For the compound `CCc1cnc(N2CCC(N(C(=O)c3ccc(-n4cncn4)c(F)c3)C3CC3)CC2)nc1` [Example 105, N-Cyclopropyl-N-[1-(5-ethyl-pyrimidin-2-yl)-piperidin-4-yl]-3-fluoro-4-[1,2,4]triazol-1-yl-benzamide], in test [1], the half-maximal effective concentration (EC50) turned out to be 53 nM.
Same read-out and setting: to `CCc1cnc(N2CCC(N(C(=O)c3ccc(-n4ncnc4C)c(F)c3)C3CC3)CC2)nc1` [Example 106, N-Cyclopropyl-N-[1-(5-ethyl-pyrimidin-2-yl)-piperidin-4-yl]-3-fluoro-4-(5-methyl-[1,2,4]triazol-1-yl)-benzamide] belongs 885 nM; to `Cc1nccn1-c1ccc(C(=O)N(C2CC2)C2CCN(c3ncc(Cl)cn3)CC2)cc1` [Example 107, N-[1-(5-Chloro-pyrimidin-2-yl)-piperidin-4-yl]-N-cyclopropyl-4-(2-methyl-imidazol-1-yl)-benzamide], 549 nM.
